# Test results from PubChem BioAssay (NCI).
#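 Cells were grown in 96-well plates and exposed to each compound for 48 hours at five concentrations; endpoints were interpolated linearly between bracketing concentrations, or set to the highest concentration if not reached. Definition used: TGI = concentration required for complete inhibition of growth.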
# System: OVCAR-3 ovarian
# Test: DTP human tumour cell line panel, 48 h
row,SMILES,TGI
1,COc1cc2c3c(cc(Cl)nc3c1OC)C(O)(CC(=O)c1ccccc1)C(=O)N2 (configuration not stated),30.2 µM
2,Cc1ccc(S[C@@H](C)[C@@](O)(C(N)=O)c2ccccc2)cc1,> 100 µM
3,CN1CCN([C@H]2C[C@H]3[C@@H]4CC=C5C[C@@H](O)CC[C@]5(C)[C@H]4CC[C@]3(C)[C@H]2O)CC1,> 57.8 µM
4,CC(C)c1ccc(/C=C2\CSCC3=C2N=C2SCC(=O)N2C3c2ccc(C(C)C)cc2)cc1 (configuration not stated),> 100 µM
5,CCOC(=O)CCC(NC(=O)c1ccc(Nc2nc3ccccc3nc2C(=O)OCC)cc1)C(=O)OCC (configuration not stated),4.73 µM
6,CC(=O)c1sc2[n+](c1C)C(=O)/C(=C\c1ccccc1Cl)S2,35.8 µM
7,CC(NC(=O)C(Cc1ccc(OC(=O)c2ccccc2)cc1)NC(=O)OC(C)(C)C)C(=O)NCC(=O)NC(Cc1ccccc1)C(=O)NN (configuration not stated),> 100 µM
8,C[C@H](CCC(=O)NCC(=O)O)[C@H]1CC[C@H]2[C@@H]3[C@H](O)C[C@@H]4C[C@H](O)CC[C@]4(C)[C@H]3CC[C@]12C,> 100 µM
9,CN(C)/C=C/C=C(/C=N/S(=O)(=O)C(F)(F)F)C1C=CN(S(=O)(=O)C(F)(F)F)C=C1,98 µM
10,Cc1cc(=O)oc2c(CNC(CC(C)C)C(=O)O)c(O)ccc12 (configuration not stated),> 100 µM
11,COC1CC(OC2C(C)OC(OC3C(C)OC(OC4C(C)OC(O[C@H]5CC[C@@]6(C)C(=CC[C@]7(O)[C@@H]6C[C@@H](O)[C@@]6(C)[C@]7(O)CC[C@@]6(O)C(C)=O)C5)CC4OC)CC3OC)CC2OC)OC(C)C1O (some centres not stated),> 12.5 µM
12,Cc1ccc2c(c1C)C(=O)/C(=C/c1cccc(C)c1C(=O)O)C2,> 100 µM
13,O=C1N(c2ccccc2)C(=S)/C(=C/c2ccc(Cl)cc2)N1c1ccc(Cl)cc1,> 100 µM
14,O=C1C=C(N2CCN(CCOCCO)CC2)C(=O)c2c(O)ccc(O)c21,5.35 µM
15,CC/C(N)=N\NC(=O)OC(C)(C)C,> 100 µM
16,CC(=O)NC1C(OCc2ccccc2)OC(CO)C(O)C1OCC(=O)N[C@@H](C)C(=O)N[C@H](CCC(=O)NCCCNc1ccc([N+](=O)[O-])c2[nH]c3ccccc3c(=O)c12)C(N)=O (some centres not stated),> 100 µM
17,CCOC(=O)c1cc(Br)c(-c2cc(C)co2)[nH]1,> 100 µM
18,O=P(O)(O)CN1CCNCCN(CP(=O)(O)O)CC1,> 100 µM
19,c1cc2c(cc1C1=NCCN1)c1cc(C3=NCCN3)ccc1n2CC1CCCCC1,> 100 µM

# System: MALME-3M melanoma
# Test: DTP human tumour cell line panel, 48 h
row,SMILES,TGI
1,COc1cc2c3c(cc(Cl)nc3c1OC)C(O)(CC(=O)c1ccccc1)C(=O)N2 (configuration not stated),4.04 µM
2,Cc1ccc(S[C@@H](C)[C@@](O)(C(N)=O)c2ccccc2)cc1,42.8 µM
3,CN1CCN([C@H]2C[C@H]3[C@@H]4CC=C5C[C@@H](O)CC[C@]5(C)[C@H]4CC[C@]3(C)[C@H]2O)CC1,> 58.1 µM
4,CC(C)c1ccc(/C=C2\CSCC3=C2N=C2SCC(=O)N2C3c2ccc(C(C)C)cc2)cc1 (configuration not stated),> 100 µM
5,CCOC(=O)CCC(NC(=O)c1ccc(Nc2nc3ccccc3nc2C(=O)OCC)cc1)C(=O)OCC (configuration not stated),26.3 µM
6,CC(=O)c1sc2[n+](c1C)C(=O)/C(=C\c1ccccc1Cl)S2,32.4 µM
7,CC(NC(=O)C(Cc1ccc(OC(=O)c2ccccc2)cc1)NC(=O)OC(C)(C)C)C(=O)NCC(=O)NC(Cc1ccccc1)C(=O)NN (configuration not stated),> 100 µM
8,C[C@H](CCC(=O)NCC(=O)O)[C@H]1CC[C@H]2[C@@H]3[C@H](O)C[C@@H]4C[C@H](O)CC[C@]4(C)[C@H]3CC[C@]12C,> 100 µM
9,CN(C)/C=C/C=C(/C=N/S(=O)(=O)C(F)(F)F)C1C=CN(S(=O)(=O)C(F)(F)F)C=C1,82.7 µM
10,Cc1cc(=O)oc2c(CNC(CC(C)C)C(=O)O)c(O)ccc12 (configuration not stated),> 100 µM
11,COC1CC(OC2C(C)OC(OC3C(C)OC(OC4C(C)OC(O[C@H]5CC[C@@]6(C)C(=CC[C@]7(O)[C@@H]6C[C@@H](O)[C@@]6(C)[C@]7(O)CC[C@@]6(O)C(C)=O)C5)CC4OC)CC3OC)CC2OC)OC(C)C1O (some centres not stated),> 12.5 µM
12,Cc1ccc2c(c1C)C(=O)/C(=C/c1cccc(C)c1C(=O)O)C2,> 100 µM
13,O=C1N(c2ccccc2)C(=S)/C(=C/c2ccc(Cl)cc2)N1c1ccc(Cl)cc1,63.9 µM
14,O=C1C=C(N2CCN(CCOCCO)CC2)C(=O)c2c(O)ccc(O)c21,2.91 µM
15,CC/C(N)=N\NC(=O)OC(C)(C)C,> 100 µM
16,CC(=O)NC1C(OCc2ccccc2)OC(CO)C(O)C1OCC(=O)N[C@@H](C)C(=O)N[C@H](CCC(=O)NCCCNc1ccc([N+](=O)[O-])c2[nH]c3ccccc3c(=O)c12)C(N)=O (some centres not stated),> 100 µM
17,CCOC(=O)c1cc(Br)c(-c2cc(C)co2)[nH]1,> 100 µM
18,O=P(O)(O)CN1CCNCCN(CP(=O)(O)O)CC1,> 100 µM
19,c1cc2c(cc1C1=NCCN1)c1cc(C3=NCCN3)ccc1n2CC1CCCCC1,23.8 µM

# System: IGROV1 ovarian
# Test: DTP human tumour cell line panel, 48 h
row,SMILES,TGI
1,COc1cc2c3c(cc(Cl)nc3c1OC)C(O)(CC(=O)c1ccccc1)C(=O)N2 (configuration not stated),27.4 µM
2,Cc1ccc(S[C@@H](C)[C@@](O)(C(N)=O)c2ccccc2)cc1,15.5 µM
3,CN1CCN([C@H]2C[C@H]3[C@@H]4CC=C5C[C@@H](O)CC[C@]5(C)[C@H]4CC[C@]3(C)[C@H]2O)CC1,> 100 µM
4,CC(C)c1ccc(/C=C2\CSCC3=C2N=C2SCC(=O)N2C3c2ccc(C(C)C)cc2)cc1 (configuration not stated),> 100 µM
